In patent publication US11214803B2, “Modulators of YAP1 expression” (Ionis Pharmaceuticals, Inc., priority 2019, dated 2022):
Strand notation (5' to 3'): a small letter for the sugar, then the base; units joined by * are phosphorothioate-linked, units joined directly phosphodiester-linked; [ ] holds rarer units or linkages, { } end groups; capitals alone tell only the bases. e = 2'-O-(2-methoxyethyl) (MOE); k = constrained ethyl (cEt); [5mC] = 5-methylcytosine; d = 2'-deoxy (DNA); m = 2'-O-methyl

System: Yap1 mRNA
Assay: Antisense inhibition of human Yap1 in SNU-449 cells by modified oligonucleotides, single dose (Example 5, RTS36584)
Type: cell-based
In short: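 SNU-449 cells were given 2,000 nM oligonucleotide by free uptake for about 48 h. Yap1 mRNA was then measured by RT-qPCR with primer probe set RTS36584, normalized to total RNA by RIBOGREEN and expressed as percent of untreated control.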

[1] = Table 48, Yap1 mRNA level relative to untreated control, modified oligonucleotides targeting SEQ ID NO.: 1 and 2
[2] = Table 42 (separate experiment), SNU-449 cells, 10,000 cells per well, free uptake, 2,000 nM modified oligonucleotide, approximately 48 hours, RTS36584, normalized to RIBOGREEN, Yap1 mRNA relative to untreated control cells
[3] = Table 43 experiment, SNU-449 cells, 10,000 cells per well, free uptake, 2,000 nM, approximately 48 hours, RTS36584, Yap1 mRNA normalized to RIBOGREEN, relative to untreated control cells
[4] = Table 52, Yap1 mRNA, modified oligonucleotides targeting SEQ ID NO: 1 and 2
[5] = Table 49, Yap1 mRNA level relative to untreated control, modified oligonucleotides targeting SEQ ID NO.: 1 and 2
[6] = Yap1 mRNA, percent of untreated control, modified oligonucleotides targeting SEQ ID NO: 1 and 2, Table 47
[7] = Table 40 (separate experiment), SNU-449 cells, 10,000 cells per well, free uptake, 2,000 nM oligonucleotide, approx. 48 hours, RTS36584, normalized to RIBOGREEN, Yap1 mRNA relative to untreated control

## 1198926 (kG*k[5mC]*dT*dT*dT*dG*dG*dA*dA*dG*dA*kT*d[5mC]*kT*dG*kA; antisense) [Compound 1198926]
Table 45, Yap1 mRNA as percent of untreated control, SNU-449 cells, single dose
  YAP1 (% UTC): 45 % UTC

## 1198607 (antisense kA*kT*kG*dT*dA*dA*dT*dA*dT*dT*dG*d[5mC]*kA*kA*kT*e[5mC]) [Compound 1198607]
Table 50, Yap1 mRNA remaining as percent of untreated control (UT), SNU-449 cells, single dose
  YAP1 (% UT): 77 % UT

## 1198310 (kA*k[5mC]*kT*dT*dT*dT*dA*d[5mC]*dA*dT*dT*dA*kG*eG*kA*eA; antisense) [Compound 1198310]
[1]
  YAP1 (% UT): 28 % UT

## 1198697 (antisense kA*kG*dT*dG*dT*dA*dT*dG*dT*d[5mC]*dA*dG*kA*eA*kG*eA) [Compound 1198697]
[2]
  YAP1 (% UTC): 12 % UTC

## 1197214 (antisense kA*kG*kT*dG*dT*dA*dT*dG*dT*d[5mC]*dA*dG*dA*kA*kG*kA) [Compound 1197214]
[1]
  YAP1 (% UT): 5 % UT

## 1198276 (kA*kG*dT*dA*dA*dG*dG*dT*dT*dT*d[5mC]*e[5mC]*e[5mC]*eA*kG*kA; antisense) [Compound 1198276]
[3]
  YAP1 (% UTC): 52 % UTC

## 1198476 (antisense kA*kG*dG*dT*dA*dT*dA*dA*d[5mC]*dT*dG*eG*kG*e[5mC]*kA*eA) [Compound 1198476]
Table 44 experiment, SNU-449 cells, 10,000 cells per well, free uptake, 2,000 nM, approximately 48 hours, RTS36584, Yap1 mRNA normalized to RIBOGREEN, relative to untreated control cells
  YAP1 (% UTC): 31 % UTC

## 1198821 (kT*k[5mC]*dT*dA*dT*dA*dT*dT*dA*dG*dA*kG*eT*kA*eT*kG; antisense) [Compound 1198821]
Table 46, Yap1 mRNA as percent of untreated control, SNU-449 cells, single dose
  YAP1 (% UT): 62 % UT

## 1200837 (kA*kT*kT*d[5mC]*dA*mG*dA*dT*dT*dT*dA*dG*dG*kA*kT*kG; antisense) [Compound 1200837]
[4]
  YAP1 (% UT): 82 % UT

## 1198369 (kT*kT*kA*dG*dA*d[5mC]*dT*dA*dA*dG*dT*dA*kA*eG*kG*eT; antisense) [Compound 1198369]
[5]
  YAP1 (% UT): 51 % UT

## 1197225 (antisense kG*kA*k[5mC]*dT*dA*dA*dG*dT*dA*dA*dG*dG*dT*kT*kT*k[5mC]) [Compound 1197225]
[6]
  YAP1 (% UT): 46 % UT

## 1198714 (kT*eG*kT*d[5mC]*dT*d[5mC]*dA*dT*dG*d[5mC]*d[5mC]*dT*eT*eA*kT*kA; antisense) [Compound 1198714]
[7]
  YAP1 (% UTC): 20 % UTC

## 1198581 (antisense kA*kG*kT*dG*d[5mC]*dT*dT*dT*dG*dG*dA*dA*kG*kA*kT*e[5mC]) [Compound 1198581]
[5]
  YAP1 (% UT): 42 % UT

## 1198246 (kT*k[5mC]*dA*dG*dA*dT*dT*dT*dA*dG*dG*eA*eT*eG*k[5mC]*kA; antisense) [Compound 1198246]
[3]
  YAP1 (% UTC): 30 % UTC

## 1198723 (kA*eG*kT*dA*dT*dG*dT*dG*dG*d[5mC]*dA*dA*eT*eA*kA*kT; antisense) [Compound 1198723]
[7]
  YAP1 (% UTC): 57 % UTC

## 1198441 (kA*dA*dA*dG*dT*dG*dT*dA*dT*dG*dT*k[5mC]*eA*kG*eA*kA; antisense) [Compound 1198441]
[7]
  YAP1 (% UTC): 19 % UTC

## 1198224 (kA*k[5mC]*dT*dT*dT*dT*dA*d[5mC]*dA*dT*dT*eA*eG*eG*kA*kA) [Compound 1198224]
[2]
  YAP1 (% UTC): 74 % UTC

## 1198648 (kA*kG*dG*dT*dA*dT*dA*dA*d[5mC]*dT*dG*dG*kG*e[5mC]*kA*eA) [Compound 1198648]
[2]
  YAP1 (% UTC): 43 % UTC

## 1197190 (antisense k[5mC]*kT*kT*dT*dG*dG*dA*dA*dG*dA*dT*d[5mC]*dT*kG*kA*kA) [Compound 1197190]
[6]
  YAP1 (% UT): 57 % UT

## 1198880 (kA*kA*d[5mC]*dT*dT*dT*dA*dA*dA*dG*dT*kG*eT*kA*eT*kG; antisense) [Compound 1198880]
[6]
  YAP1 (% UT): 98 % UT

## 1200850 (kT*kA*kA*dT*dA*mU*dT*dG*d[5mC]*dA*dA*dT*d[5mC]*kT*kG*kT; antisense) [Compound 1200850]
[4]
  YAP1 (% UT): 83 % UT

## 1200826 (kG*kT*kG*d[5mC]*dT*mU*dT*dG*dG*dA*dA*dG*dA*kT*k[5mC]*kT; antisense) [Compound 1200826]
[4]
  YAP1 (% UT): 26 % UT

## 1198366 (kA*k[5mC]*kT*dA*dA*dG*dT*dA*dA*dG*dG*dT*kT*eT*k[5mC]*e[5mC]; antisense) [Compound 1198366]
[5]
  YAP1 (% UT): 45 % UT
